# Results: patent US20040248918A1, “N-phenyl-2-pyrimidine-amine derivatives and process for the preparation thereof” (IL YANG PHARM. CO., LTD., priority 2003, published 2004)
# Legend:
# [1] = tested on: pancreatic cancer cell of PANC-1; assay: Growth inhibition of PANC-1 (MTT); assay type: cell-based
# [2] = tested on: pancreatic cancer cell of CAPAN-2; assay: Growth inhibition of CAPAN-2 (MTT); assay type: cell-based; conditions: CAPAN-2
# [3] = tested on: colon cancer cell of SNU-C1; assay: Growth inhibition of SNU-C1 (MTT); assay type: cell-based
# [4] = tested on: rectal cancer cell of CMT-93; assay: Growth inhibition of CMT-93 (MTT); assay type: cell-based
# Procedure: (§1) In the present experiment, the inhibitory activity of the compound of formula (1) was determined against the growth of K562 cancer cell. First, the cells were allowed to stand in RPMI (Roswell Park Memorial Institute)-1640 medium containing 10% (v/v) fetal bovine serum in an incubator of 37° C. and 5% by volume of CO2. The cancer cells (1000 cells) were transferred to a 96-well plate, and the test compound was diluted. The plate was allowed to stand under the above mentioned conditions for 2 days. After this treatment, to the cells was added 0.2% MTT (3-[4,5-dimethylthiazol-2-yl]-2,5-diphenyltetrazolium bromide) solution, and the resulting mixture was allowed to stand under the constant temperature-condition for 4 hours. The supernatant was removed to leave the resulting crystal. DMSO was added to dissolve the crystal, and the absorbance of the solution was measured at 540 nm. IC50 value was calculated using a computer system according to the following formula: […]
# (§2) The test was performed according to the same procedure as Experiment 1.
# [5] = tested on: cervical cancer cell of HeLa229; assay: Growth inhibition of HeLa 229 (MTT); assay type: cell-based
# [6] = tested on: encephalophyma cell of A172; assay: Growth inhibition of A172 (MTT); assay type: cell-based
# Procedure: as §1, §2
# [7] = tested on: bladder cancer cell of HT-1197; assay: Growth inhibition of HT-1197 (MTT); assay type: cell-based
# Procedure: as §1, §2
# [8] = tested on: K562 cancer cell (CML cell line); assay: Growth inhibition of K562 cancer cell (MTT); assay type: cell-based; conditions: Homo sapiens, K562, 48 h, K562, 2 days, MTT; read-out: IC50
# Procedure: In the present experiment, the inhibitory activity of the compound of formula (1) was determined against the growth of K562 cancer cell. First, the cells were allowed to stand in RPMI (Roswell Park Memorial Institute)-1640 medium containing 10% (v/v) fetal bovine serum in an incubator of 37° C. and 5% by volume of CO2. The cancer cells (1000 cells) were transferred to a 96-well plate, and the test compound was diluted. The plate was allowed to stand under the above mentioned conditions for 2 days. […] The supernatant was removed to leave the resulting crystal.
# [9] = tested on: L1210 cancer cell (leukemia cell line); assay: Growth inhibition of L1210 cancer cell (MTT); assay type: cell-based; conditions: Mus musculus
# Procedure: as §1
# In the present experiment, the inhibitory activity of the compound of formula (1) was determined against the growth of L1210 cancer cell. The test was performed according to the same procedure as Experiment 1.
# [10] = tested on: U937 cancer cell (monocyte like leukemia cell line); assay: Growth inhibition of U937 cancer cell (MTT); assay type: cell-based
# Procedure: as §1
# In the present experiment, the inhibitory activity of the compound of formula (1) was determined against the growth of U937 cancer cell. The test was performed according to the same procedure as Experiment 1.
# lung cancer cell (A549) = assay: Growth inhibition of A549 (MTT); assay type: cell-based; conditions: Homo sapiens
# Procedure: as §1, §2
# [11] = tested on: gastric cancer cell (KATO III); assay: Growth inhibition of KATO III (MTT); assay type: cell-based; conditions: Homo sapiens
# Procedure: as §1, §2
# [12] = tested on: oral epithelial cancer cell (KB); assay: Growth inhibition of KB (MTT); assay type: cell-based; conditions: Homo sapiens
# Procedure: as §1, §2
# [13] = tested on: hematologic malignancy cell (HL-60); assay: Growth inhibition of HL-60 (MTT); assay type: cell-based; conditions: Homo sapiens
# [14] = tested on: ovarian cancer cell (SK-OV-03); assay: Growth inhibition of SK-OV-03 (MTT); assay type: cell-based
# Procedure: as §1, §2
# [15] = tested on: breast cancer cell (MCF-7); assay: Growth inhibition of MCF-7 (MTT); assay type: cell-based; conditions: Homo sapiens, MCF7
# Procedure: as §1, §2
# [16] = tested on: prostatic cancer cell (DU-145); assay: Growth inhibition of DU-145 (MTT); assay type: cell-based; conditions: Homo sapiens
# Procedure: as §1, §2
# [17] = tested on: acute myelogenous leukemia cell (KG-1); assay: Growth inhibition of KG-1 (MTT); assay type: cell-based
# [18] = tested on: lymphoma cell (RPMI-6666); assay: Growth inhibition of RPMI-6666 (MTT); assay type: cell-based
# Procedure: as §1, §2
# hepatoma cell (SNU-182) = assay: Growth inhibition of SNU-182 (MTT); assay type: cell-based; conditions: Homo sapiens
# Procedure: as §1, §2
# [19] = Comparative pharmacokinetic test in white rats; assay type: in vivo, white rats (Sprague-Dawley); conditions: male, Sprague-Dawley, plasma, po, rat, 50 mg/kg, P.O.
# Procedure: On the previous day to the test, white rats (Sprague-Dawley, 250˜280 g, male) were put under anesthesia by pentobarbital sodium (50 mg/kg, I.P.). Then, cannula (polyethylene tube; diameter: 0.58mm) was introduced into the rats via the carotid artery and jugular vein, and drawn out to the back. After the operation, the rats were fasted for 16 hours and used for the test. […] Blood was collected in 0, 0.5, 1, 1.5, 2, 2.5, 3, 3.5, 4, 4.5, 5, 6, 8, 10, 12, and 24 hours from the carotid artery. The samples for HPLC analysis were prepared using the collected blood according to the following procedure and were analyzed under the following conditions.
# Blood was collected by an amount of 0.5 ml at each prearranged time and centrifuged at 15000 rpm for 7 minutes to separate […] of plasma. In order to remove proteins, MeOH was added in an amount of […], twice as much as the amount of plasma, and the mixture was shaken for 30 minutes. The mixture was centrifuged again at 15000 rpm for 5 minutes to give protein free supernatant, which was then analyzed by HPLC.
# Flow rate: 1.0 ml/min, UV detection at 267 nm
# Column: 4.6×150 mm, 5C18-AR-II, COSMOSIL
# Eluent: Mixture of ion pair sample (420 ml) and MeOH (580 ml)
# Ion pair sample: 7.5 g of 1-octanesulfonic acid was dissolved in 800 ml of water. The resulting mixture was adjusted to pH 2.5 using phosphoric acid and diluted with water to 1000 ml volume.
# Here, the pharmacokinetic parameters are Tmax (time to reach the maximum blood concentration), Cmax (maximum blood concentration), AUC (area under the curve of time-blood concentration), and T1/2 (half time in blood), and the AUC was calculated under trapezoid rule (see Tables 6, 7 and FIGS. 1, 2).
# [20] = Acute toxicity test in mice (oral administration); conditions: both sexes, ICR, mouse, in vivo, 2000 mg/kg; mice, oral
# Procedure: (§3) In order to determine the acute toxicity of the compound of the present invention when the compound is orally administered, mice (ICR, 24˜26 g) were fasted for 16 hours. One group consists of 10 males and 10 females. The first group is the control group and physiological saline was administered per oral to this group. The compounds of Examples 2 and 4 were orally administered in a dosage of 2000 mg/kg, the maximum dosage in acute toxicity test, to each test group. […] On the last day of the test, 14th day from the start, the mice were subjected to an autopsy in order to examine changes of the internal organs. […] This means that the compounds of the present invention including those of Examples 2 and 4 are safe in the aspect of acute toxicity.
# mice (ICR) = assay: Acute toxicity test in mice (oral administration); conditions: mouse, in vivo, po, 2000 mg/kg
# Procedure: as §3
compound,measurement,setting,value
"N.N.[Cl][Pt][Cl] [Cisplatin, cisplatin, reference compound]",IC50,[1],41.55 µg/mL
same,IC50,[2],496.9 µg/mL
same,IC50,[3],302 µg/mL
same,IC50,[4],0.67 µg/mL
same,IC50,[5],0.9 µg/mL
same,IC50,[6],5.7 µg/mL
same,IC50,[7],7.5 µg/mL
"CS(=O)(=O)O.Cc1ccc(NC(=O)c2ccc(CN3CCCN(C)CC3)cc2)cc1Nc1nccc(-c2cccnc2)n1 [Example 2, 4-(4-methylhomopiperazin-1-ylmethyl)-N-[4-methyl-3-(4-(pyridin-3-yl)pyrimidin-2-yl)aminophenyl]benzamide methanesulfonate]",IC50,[8],1.2 µg/mL
same,IC50,[9],7.6 µg/mL
same,Improved activity versus Imatinib mesylate,[10],40 times
same,IC50,"[10]; Homo sapiens, U-937",0.7 µg/mL
same,IC50,lung cancer cell (A549),27.6 µg/mL
same,IC50,[11],30 µg/mL
same,IC50,[12],31.6 µg/mL
same,IC50,[13],17.7 µg/mL
same,IC50,[14],38 µg/mL
same,IC50,[15],36.2 µg/mL
same,IC50,[16],30.3 µg/mL
same,IC50 as fraction of that of Imatinib mesylate,[17],¼
same,IC50,[17]; Homo sapiens,7.31 µg/mL
same,IC50 as fraction of that of Imatinib mesylate,[18],½
same,IC50,[18]; Homo sapiens,14.7 µg/mL
same,IC50,hepatoma cell (SNU-182),24.7 µg/mL
same,Cmax,[19],2200 ng/mL
same,Tmax,[19],1.5 h
same,AUC,[19]; trapezoid rule,26200 ng·h/mL
same,LD50 at 14 days,[20],≥ 2000 mg/kg
same,Clinical conditions and autopsy,mice (ICR),neither abnormal response nor specific autopsy result was observed
same,Mortality during the test period,mice (ICR),no mouse died
"O=c1[nH]cc(F)c(=O)[nH]1 [Example 5-FU, 5-Fu, reference compound]",IC50,[1],553.8 µg/mL
same,IC50,[2],1000> μg/ml
same,IC50,[3],95.3 µg/mL
same,IC50,[4],1.1 µg/mL
same,IC50,[5],81.03 µg/mL
same,IC50,[6],99 µg/mL
same,IC50,[7],98.5 µg/mL
